Reference: ChEMBL document CHEMBL1143555, “Development of low molecular weight HIV-1 protease dimerization inhibitors” (J Med Chem, 2005)

Legend:
[1] = molecular target: T1, Human immunodeficiency virus type 1 protease (Human immunodeficiency virus 1, UniProt Q72874); assay: Inhibitory concentration against human immunodeficiency virus-1 protease
[2] = molecular target: T1, Human immunodeficiency virus type 1 protease; assay: Inhibitory concentration against human immunodeficiency virus -1 protease

SMILES | IC50 [1] | Ki [2]
CC[C@H](C)[C@@H](NC(=O)[C@@H](NC(=O)CCCCCCCCCCCCCCC(=O)N[C@H](CC(=O)N[C@@H](Cc1ccccc1)C(=O)O)C(N)=O)[C@H](C)O)C(=O)N[C@@H](Cc1ccc([N+](=O)[O-])cc1)C(N)=O | 590000 nM | 
CC[C@H](C)[C@@H](NC(=O)C(NC(=O)CCCCCCCCCCCCCCC(=O)N[C@H](CC(=O)N[C@@H](Cc1ccccc1)C(=O)O)C(N)=O)C(C)(C)C)C(=O)N[C@@H](Cc1ccccc1)C(N)=O (stereo partly drawn) | 7700 nM | 
CC[C@H](C)[C@@H](NC(=O)[C@H]([C@H](C)O)N(C)C(=O)CCCCCCCCCCCCCCC(=O)NC(CC(C)C)C(=O)N[C@@H](Cc1ccccc1)C(=O)O)C(=O)NC(CO)C(N)=O (stereo partly drawn) |  | 273 nM
CCC(C)[C@@H](NC(=O)[C@H](C(C)O)N(C)C(=O)CCCCCCCCCCCCCCC(=O)NC(Cc1ccc(N)cc1)C(=O)N[C@@H](Cc1ccccc1)C(=O)O)C(=O)NC(CO)C(N)=O (stereo partly drawn) | 1.2 nM | 
CC[C@H](C)[C@@H](NC(=O)[C@@H](NC(=O)CCCCCCCCCCCCCCC(=O)N[C@H](CC(=O)N[C@@H](Cc1ccccc1)C(=O)O)C(N)=O)[C@H](C)O)C(=O)N[C@@H](Cc1ccc(C(=O)c2ccccc2)cc1)C(N)=O |  | 314 nM
CCC(C)[C@H](NC(=O)CCCCCCCCCCCCCCC(=O)N[C@@H](CC(N)=O)C(=O)NC(CC1CCCCC1)C(=O)O)C(=O)N[C@H](Cc1ccccc1)C(N)=O (stereo partly drawn) |  | 285 nM
CC[C@H](C)[C@@H](NC(=O)[C@@H](NC(=O)CCCCCCCCCCCCCCC(=O)N[C@H](CC(=O)N[C@@H](Cc1ccccc1)C(=O)O)C(N)=O)[C@H](C)O)C(=O)N[C@H](Cc1ccc(C#N)cc1)C(N)=O | 1400 nM | 
CCC(C)[C@@H](NC(=O)[C@@H](NC(=O)CCCCCCCCCCCCCCC(=O)N[C@@H](Cc1ccc(O)c([N+](=O)[O-])c1)C(=O)N[C@@H](Cc1ccccc1)C(=O)O)C(C)O)C(=O)NC(CO)C(N)=O (stereo partly drawn) |  | 102 nM
CC[C@H](C)[C@@H](NC(=O)[C@H]([C@H](C)O)N(C)C(=O)CCCCCCCCCCCCCCC(=O)N[C@H](Cc1ccccc1)C(=O)N[C@@H](Cc1ccccc1)C(=O)O)C(=O)NC(CO)C(N)=O (stereo partly drawn) |  | 112 nM
CCC(C)[C@@H](NC(=O)C(Cc1ccc(F)c(F)c1)NC(=O)CCCCCCCCCCCCCCC(=O)N[C@H](CC(=O)N[C@@H](Cc1ccccc1)C(=O)O)C(N)=O)C(=O)N[C@@H](Cc1ccccc1)C(N)=O (stereo partly drawn) | 1100 nM | 
CC[C@H](C)[C@@H](NC(=O)[C@H]([C@H](C)O)N(C)C(=O)CCCCCCCCCCCCCCC(=O)NC(Cc1ccc(O)cc1)C(=O)N[C@@H](Cc1ccccc1)C(=O)O)C(=O)NC(CO)C(N)=O (stereo partly drawn) | 774 nM | 
CC[C@H](C)[C@@H](NC(=O)[C@@H](NC(=O)CCCCCCCCCCCCCCC(=O)N[C@H](CC(=O)N[C@@H](Cc1ccccc1)C(=O)O)C(N)=O)[C@H](C)O)C(=O)N1Cc2[nH]c3ccccc3c2CC1C(N)=O (stereo partly drawn) | 3100 nM | 
CC[C@H](C)[C@@H](NC(=O)[C@@H](NC(=O)CCCCCCCCCCCCCCC(=O)N[C@H](CC(=O)N[C@@H](Cc1ccccc1)C(=O)O)C(N)=O)[C@H](C)O)C(=O)NC(CCc1ccccc1)C(N)=O (stereo partly drawn) | 1300 nM | 
CCC(C)[C@@H](NC(=O)[C@@H](NC(=O)CCCCCCCCCCCCCCC(=O)N[C@@H](C(=O)N[C@@H](Cc1ccccc1)C(=O)O)c1ccc(OCc2ccccc2)cc1)C(C)O)C(=O)NC(CO)C(N)=O (stereo partly drawn) |  | 110 nM
CCC(C)[C@@H](NC(=O)[C@H](C(C)O)N(C)C(=O)CCCCCCCCCCCCCCC(=O)NC(Cc1ccc(OP(=O)(O)O)cc1)C(=O)N[C@@H](Cc1ccccc1)C(=O)O)C(=O)NC(CO)C(N)=O (stereo partly drawn) | 2100 nM | 
CCC(C)[C@H](NC(=O)CCCCCCCCCCCCCCC(=O)N[C@@H](CC(N)=O)C(=O)N[C@@H](CCc1ccccc1)C(=O)O)C(=O)N[C@H](Cc1ccccc1)C(N)=O (stereo partly drawn) |  | 268 nM
CC[C@H](C)[C@@H](NC(=O)[C@@H](NC(=O)CCCCCCCCCCCCCCC(=O)N[C@H](CC(=O)N[C@@H](Cc1ccccc1)C(=O)O)C(N)=O)[C@H](C)O)C(=O)N[C@H](Cc1ccc(Br)cc1)C(N)=O | 1700 nM | 

SMILES | IC50 [1] | Ki [2]
CCC(C)[C@H](NC(=O)CCCCCCCCCCCCCCC(=O)N[C@@H](CC(N)=O)C(=O)NC(C(=O)O)C1CCCCC1)C(=O)N[C@H](Cc1ccccc1)C(N)=O (stereo partly drawn) |  | 254 nM
CCC(C)[C@@H](NC(=O)C(CCC(C)C)NC(=O)CCCCCCCCCCCCCCC(=O)N[C@H](CC(=O)N[C@@H](Cc1ccccc1)C(=O)O)C(N)=O)C(=O)N[C@@H](Cc1ccccc1)C(N)=O (stereo partly drawn) |  | 502000 nM
CCC(C)[C@@H](NC(=O)[C@@H](NC(=O)CCCCCCCCCCCCCCC(=O)N[C@@H](Cc1ccc([N+](=O)[O-])cc1)C(=O)N[C@@H](Cc1ccccc1)C(=O)O)C(C)O)C(=O)NC(CO)C(N)=O (stereo partly drawn) |  | 103 nM
CC[C@H](C)[C@@H](NC(=O)[C@H]([C@H](C)O)N(C)C(=O)CCCCCCCCCCCCCCC(=O)Nc1ccccc1C(=O)N[C@@H](Cc1ccccc1)C(=O)O)C(=O)NC(CO)C(N)=O (stereo partly drawn) |  | 235000 nM
CC[C@H](C)[C@@H](NC(=O)[C@@H](NC(=O)CCCCCCCCCCCCCCC(=O)N[C@H](CC(=O)N[C@@H](Cc1ccccc1)C(=O)O)C(N)=O)[C@H](C)O)C(=O)N[C@@H](Cc1ccccc1)C(=O)N[C@@H](Cc1ccccc1)C(N)=O |  | 361 nM
CC[C@H](C)[C@@H](NC(=O)[C@H]([C@H](C)O)N(C)C(=O)CCCCCCCCCCCCCCC(=O)N[C@H](Cc1ccc(C#N)cc1)C(=O)N[C@@H](Cc1ccccc1)C(=O)O)C(=O)NC(CO)C(N)=O (stereo partly drawn) |  | 140 nM
CC[C@H](C)[C@@H](NC(=O)[C@H]([C@H](C)O)N(C)C(=O)CCCCCCCCCCCCCCC(=O)N[C@H](CCc1ccccc1)C(=O)N[C@@H](Cc1ccccc1)C(=O)O)C(=O)NC(CO)C(N)=O (stereo partly drawn) |  | 160 nM
CC[C@H](C)[C@@H](NC(=O)[C@H]([C@H](C)O)N(C)C(=O)CCCCCCCCCCCCCCC(=O)N[C@@H](C(=O)N[C@@H](Cc1ccccc1)C(=O)O)C(C)C)C(=O)NC(CO)C(N)=O (stereo partly drawn) |  | 202 nM
CCC(C)[C@@H](NC(=O)[C@@H](NC(=O)CCCCCCCCCCCCCCC(=O)N[C@@H](Cc1ccc(F)c(F)c1)C(=O)N[C@@H](Cc1ccccc1)C(=O)O)C(C)O)C(=O)NC(CO)C(N)=O (stereo partly drawn) |  | 106 nM
CCC(C)[C@H](NC(=O)CCCCCCCCCCCCCCC(=O)N[C@@H](CC(N)=O)C(=O)N[C@@H](Cc1ccc(C(=O)c2ccccc2)cc1)C(=O)O)C(=O)N[C@H](Cc1ccccc1)C(N)=O (stereo partly drawn) |  | 223 nM
CC[C@H](C)[C@@H](NC(=O)CCCCCCCCCCCCCCC(=O)N(C)[C@H](C(=O)N[C@@H](C(=O)NC(CO)C(N)=O)[C@@H](C)CC)[C@H](C)O)C(=O)N[C@@H](Cc1ccccc1)C(=O)O (stereo partly drawn) |  | 140000 nM
CCC(C)[C@H](NC(=O)CCCCCCCCCCCCCCC(=O)N[C@@H](CC(N)=O)C(=O)NC(Cc1ccc2ccccc2c1)C(=O)O)C(=O)N[C@H](Cc1ccccc1)C(N)=O (stereo partly drawn) |  | 267 nM
CCC(C)[C@H](NC(=O)CCCCCCCCCCCCCCC(=O)N[C@@H](CC(N)=O)C(=O)N[C@@H](Cc1ccc([N+](=O)[O-])cc1)C(=O)O)C(=O)N[C@H](Cc1ccccc1)C(N)=O (stereo partly drawn) |  | 384 nM
CC[C@H](C)[C@@H](NC(=O)[C@@H](NC(=O)CCCCCCCCCCCCCCC(=O)N[C@H](CC(=O)N[C@@H](Cc1ccccc1)C(=O)O)C(N)=O)[C@H](C)O)C(=O)N[C@@H](Cc1ccc(OCc2ccccc2)cc1)C(N)=O |  | 414 nM
CC[C@H](C)[C@@H](NC(=O)[C@@H](NC(=O)CCCCCCCCCCCCCCC(=O)N[C@H](CC(=O)N[C@@H](Cc1ccccc1)C(=O)O)C(N)=O)[C@H](C)O)C(=O)NC(Cc1ccc([N+](=O)[O-])c(O)c1)C(N)=O (stereo partly drawn) |  | 164 nM
CC[C@H](C)[C@@H](NC(=O)[C@@H](NC(=O)CCCCCCCCCCCCCCC(=O)N[C@H](CC(=O)N[C@@H](Cc1ccccc1)C(=O)O)C(N)=O)C(C)O)C(=O)N[C@@](C)(C(N)=O)c1cccc2ccccc12 (stereo partly drawn) |  | 127 nM
